Measurements as given in US20060110456A1, “Method for biocidal and/or biostatic treatment and compositions therefor” (NATIONAL UNIVERSITY OF SINGAPORE, priority 2004, published 2006).

Legend:
[1] = test system: Balanus amphitrite cyprids; details: reported value of commercially available biocide (Willemsen et al., 1998); cited from earlier work
[2] = test system: marine bacteria (26 strains); assay: Disk inhibition assay; assay type: cell-based, marine bacteria isolated from Singapore fouling communities; details: for zone of inhibition at 10 µg/disc: 10 μg per disc; for zone of inhibition at 25 µg/disc: 25 μg per disc; for zone of inhibition at 5 µg/disc: 5 μg per disc; for zone of inhibition at 30 µg/disc: 30 μg per disc
Protocol: Preparation of Drugs onto Disks for Assay
The non-antibiotic pharmaceuticals of Table 1 were prepared in the following way. A tablet with a known amount of active ingredient (as stated in the product information) was ground in a mortar and pestle and suspended in sterile deionized water to a concentration of 2 mg ml^−1. These samples were sonicated for at least 1 min. […] The two halves of the capsule were separated and the powder released straight into a bottle and suitable amount of water added to make a concentration of 2 mg ml^−1.
As a comparison to the pharmaceuticals, to determine the susceptibility of the bacterial isolates to conventional antibiotics, commercially available antibiotic discs were used. Antibiotic discs (Oxoid® CT series) containing Ampicillin [Amp] (2 and 10 μg), Erythromycin [Ery] (5 and 15 μg), Streptomycin [Str] (10 and 25 μg) and Tetracycline [Tet] (5 and 30 μg) were placed on lawns of the bacterial strains inoculated as described below.
Sterile swabs dipped into the cultures were used to inoculate Marine Agar plates with a bacterial lawn by smearing the culture over the surface. After inoculating the plates, discs with antibiotics, pharmaceuticals or control blanks were placed on each plate. Each concentration of antibiotic or pharmaceutical was tested with three replicates on three separate occasions. After the disks were placed on the agar surface, plates were incubated overnight in the dark at 30° C. After incubation, plates were examined for zones of inhibition or clearing around control and treated disks. The diameter of any zone of clearing or inhibition was measured using Vernier calipers.
The assay was repeated three times with three replicates for each concentration used, each time.

CCCCCCCCn1sc(Cl)c(Cl)c1=O [Sea Nine]
ED50 [1]: 0.33 ppm

[H]/N=C(/N)N[C@H]1[C@H](O)[C@@H](O)[C@H](O[C@@H]2O[C@@H](C)[C@](O)(C=O)[C@H]2O[C@@H]2O[C@@H](CO)[C@H](O)[C@@H](O)[C@@H]2NC)[C@@H](N/C(N)=N\[H])[C@@H]1O [Str, streptomycin]
zone of inhibition at 10 µg/disc ([2]; strain 1 (Rhodovulum)): 10 to 19 mm | zone of inhibition at 25 µg/disc ([2]; strain 1 (Rhodovulum)): 20 to 29 mm | zone of inhibition at 10 µg/disc ([2]; strain 2 (Erythrobacter)): < 6 mm | zone of inhibition at 25 µg/disc ([2]; strain 2 (Erythrobacter)): < 6 mm | zone of inhibition at 10 µg/disc ([2]; strain 3 (Erythrobacter)): < 6 mm | zone of inhibition at 25 µg/disc ([2]; strain 3 (Erythrobacter)): < 6 mm | zone of inhibition at 10 µg/disc ([2]; strain 4 (Bacillus)): 10 to 19 mm | zone of inhibition at 25 µg/disc ([2]; strain 4 (Bacillus)): 10 to 19 mm | zone of inhibition at 10 µg/disc ([2]; strain 6 (Vibrio)): < 6 mm | zone of inhibition at 25 µg/disc ([2]; strain 6 (Vibrio)): 10 to 19 mm | zone of inhibition at 10 µg/disc ([2]; strain 7 (Vibrio)): 10 to 19 mm | zone of inhibition at 25 µg/disc ([2]; strain 7 (Vibrio)): 10 to 19 mm | zone of inhibition at 10 µg/disc ([2]; strain 8 (Bacillus)): 10 to 19 mm | zone of inhibition at 25 µg/disc ([2]; strain 8 (Bacillus)): 10 to 19 mm | zone of inhibition at 10 µg/disc ([2]; strain 9 (Bacillus)): 10 to 19 mm | zone of inhibition at 25 µg/disc ([2]; strain 9 (Bacillus)): 10 to 19 mm | zone of inhibition at 10 µg/disc ([2]; strain 10 (Halobacillus)): 10 to 19 mm | zone of inhibition at 25 µg/disc ([2]; strain 10 (Halobacillus)): 10 to 19 mm | zone of inhibition at 10 µg/disc ([2]; strain 11 (Pseudomonas)): 10 to 19 mm | zone of inhibition at 25 µg/disc ([2]; strain 11 (Pseudomonas)): 20 to 29 mm | zone of inhibition at 10 µg/disc ([2]; strain 12 (Gordonia)): < 6 mm | zone of inhibition at 25 µg/disc ([2]; strain 12 (Gordonia)): 10 to 19 mm | zone of inhibition at 10 µg/disc ([2]; strain 13 (Bacillus)): 10 to 19 mm | zone of inhibition at 25 µg/disc ([2]; strain 13 (Bacillus)): 10 to 19 mm | zone of inhibition at 10 µg/disc ([2]; strain 14 (Vibrio)): < 6 mm | zone of inhibition at 25 µg/disc ([2]; strain 14 (Vibrio)): 6 to 9 mm | zone of inhibition at 10 µg/disc ([2]; strain 16 (Pseudoalteromonas)): 6 to 9 mm | zone of inhibition at 25 µg/disc ([2]; strain 16 (Pseudoalteromonas)): 10 to 19 mm | zone of inhibition at 10 µg/disc ([2]; strain 17 (Gordonia)): 10 to 19 mm | zone of inhibition at 25 µg/disc ([2]; strain 17 (Gordonia)): 10 to 19 mm | zone of inhibition at 10 µg/disc ([2]; strain 18 (Microbacterium)): 10 to 19 mm | zone of inhibition at 25 µg/disc ([2]; strain 18 (Microbacterium)): 10 to 19 mm | zone of inhibition at 10 µg/disc ([2]; strain 19 (Erythrobacter)): < 6 mm | zone of inhibition at 25 µg/disc ([2]; strain 19 (Erythrobacter)): < 6 mm | zone of inhibition at 10 µg/disc ([2]; strain 20): < 6 mm | zone of inhibition at 25 µg/disc ([2]; strain 20): < 6 mm | zone of inhibition at 10 µg/disc ([2]; strain 21): 10 to 19 mm | zone of inhibition at 25 µg/disc ([2]; strain 21): 10 to 19 mm | zone of inhibition at 10 µg/disc ([2]; strain 22): 6 to 9 mm | zone of inhibition at 25 µg/disc ([2]; strain 22): 20 to 29 mm | zone of inhibition at 10 µg/disc ([2]; strain 24): < 6 mm | zone of inhibition at 25 µg/disc ([2]; strain 24): 20 to 29 mm | zone of inhibition at 10 µg/disc ([2]; strain 26): < 6 mm | zone of inhibition at 25 µg/disc ([2]; strain 26): 20 to 29 mm | zone of inhibition at 10 µg/disc ([2]; strain 27): < 6 mm | zone of inhibition at 25 µg/disc ([2]; strain 27): < 6 mm | zone of inhibition at 10 µg/disc ([2]; strain 28): 10 to 19 mm | zone of inhibition at 25 µg/disc ([2]; strain 28): 10 to 19 mm | zone of inhibition at 10 µg/disc ([2]; strain 29): 10 to 19 mm | zone of inhibition at 25 µg/disc ([2]; strain 29): 10 to 19 mm | zone of inhibition at 10 µg/disc ([2]; strain 30): 10 to 19 mm | zone of inhibition at 25 µg/disc ([2]; strain 30): 10 to 19 mm

CN(C)[C@@H]1C(O)=C(C(N)=O)C(=O)[C@@]2(O)C(O)=C3C(=O)c4c(O)cccc4[C@@](C)(O)[C@H]3C[C@@H]12 [Tet, tetracycline]
zone of inhibition at 5 µg/disc ([2]; strain 1 (Rhodovulum)): < 6 mm | zone of inhibition at 30 µg/disc ([2]; strain 1 (Rhodovulum)): < 6 mm | zone of inhibition at 5 µg/disc ([2]; strain 2 (Erythrobacter)): < 6 mm | zone of inhibition at 30 µg/disc ([2]; strain 2 (Erythrobacter)): < 6 mm | zone of inhibition at 5 µg/disc ([2]; strain 3 (Erythrobacter)): < 6 mm | zone of inhibition at 30 µg/disc ([2]; strain 3 (Erythrobacter)): < 6 mm | zone of inhibition at 5 µg/disc ([2]; strain 4 (Bacillus)): 10 to 19 mm | zone of inhibition at 30 µg/disc ([2]; strain 4 (Bacillus)): 10 to 19 mm | zone of inhibition at 5 µg/disc ([2]; strain 6 (Vibrio)): < 6 mm | zone of inhibition at 30 µg/disc ([2]; strain 6 (Vibrio)): 6 to 9 mm | zone of inhibition at 5 µg/disc ([2]; strain 7 (Vibrio)): < 6 mm | zone of inhibition at 30 µg/disc ([2]; strain 7 (Vibrio)): 6 to 9 mm | zone of inhibition at 5 µg/disc ([2]; strain 8 (Bacillus)): 6 to 9 mm | zone of inhibition at 30 µg/disc ([2]; strain 8 (Bacillus)): 10 to 19 mm | zone of inhibition at 5 µg/disc ([2]; strain 9 (Bacillus)): 10 to 19 mm | zone of inhibition at 30 µg/disc ([2]; strain 9 (Bacillus)): 10 to 19 mm | zone of inhibition at 5 µg/disc ([2]; strain 10 (Halobacillus)): 30 to 39 mm | zone of inhibition at 30 µg/disc ([2]; strain 10 (Halobacillus)): 10 to 19 mm | zone of inhibition at 5 µg/disc ([2]; strain 11 (Pseudomonas)): < 6 mm | zone of inhibition at 30 µg/disc ([2]; strain 11 (Pseudomonas)): < 6 mm | zone of inhibition at 5 µg/disc ([2]; strain 12 (Gordonia)): < 6 mm | zone of inhibition at 30 µg/disc ([2]; strain 12 (Gordonia)): 30 to 39 mm | zone of inhibition at 5 µg/disc ([2]; strain 13 (Bacillus)): 6 to 9 mm | zone of inhibition at 30 µg/disc ([2]; strain 13 (Bacillus)): 10 to 19 mm | zone of inhibition at 5 µg/disc ([2]; strain 14 (Vibrio)): < 6 mm | zone of inhibition at 30 µg/disc ([2]; strain 14 (Vibrio)): 10 to 19 mm | zone of inhibition at 5 µg/disc ([2]; strain 16 (Pseudoalteromonas)): < 6 mm | zone of inhibition at 30 µg/disc ([2]; strain 16 (Pseudoalteromonas)): < 6 mm | zone of inhibition at 5 µg/disc ([2]; strain 17 (Gordonia)): < 6 mm | zone of inhibition at 30 µg/disc ([2]; strain 17 (Gordonia)): < 6 mm | zone of inhibition at 5 µg/disc ([2]; strain 18 (Microbacterium)): < 6 mm | zone of inhibition at 30 µg/disc ([2]; strain 18 (Microbacterium)): 6 to 9 mm | zone of inhibition at 5 µg/disc ([2]; strain 19 (Erythrobacter)): < 6 mm | zone of inhibition at 30 µg/disc ([2]; strain 19 (Erythrobacter)): < 6 mm | zone of inhibition at 5 µg/disc ([2]; strain 20): < 6 mm | zone of inhibition at 30 µg/disc ([2]; strain 20): 10 to 19 mm | zone of inhibition at 5 µg/disc ([2]; strain 21): < 6 mm | zone of inhibition at 30 µg/disc ([2]; strain 21): 10 to 19 mm | zone of inhibition at 5 µg/disc ([2]; strain 22): 6 to 9 mm | zone of inhibition at 30 µg/disc ([2]; strain 22): 10 to 19 mm | zone of inhibition at 5 µg/disc ([2]; strain 24): < 6 mm | zone of inhibition at 30 µg/disc ([2]; strain 24): < 6 mm | zone of inhibition at 5 µg/disc ([2]; strain 26): < 6 mm | zone of inhibition at 30 µg/disc ([2]; strain 26): < 6 mm | zone of inhibition at 5 µg/disc ([2]; strain 27): < 6 mm | zone of inhibition at 30 µg/disc ([2]; strain 27): 10 to 19 mm | zone of inhibition at 5 µg/disc ([2]; strain 28): < 6 mm | zone of inhibition at 30 µg/disc ([2]; strain 28): 10 to 19 mm | zone of inhibition at 5 µg/disc ([2]; strain 29): 10 to 19 mm | zone of inhibition at 30 µg/disc ([2]; strain 29): 20 to 29 mm | zone of inhibition at 5 µg/disc ([2]; strain 30): 10 to 19 mm | zone of inhibition at 30 µg/disc ([2]; strain 30): 10 to 19 mm
